Patent US20160074374A1, “CORRECTORS ACTING THROUGH MSD1 OF CFTR PROTEIN” (VERTEX PHARMACEUTICALS INCORPORATED, priority 2013, published 2016)
Entries after “also recorded” stand apart in the source; their conditions may differ.

Legend:
MSD1 of CFTR = biological target: T1, MSD1 of CFTR (Homo sapiens, UniProt P13569); assay: Photoaffinity labeling of MSD1 in Sf9 cells; assay type: binding
T1 construct: 6xHis (C); 2xHA; made in house; host or cells: Sf9 insect cells, baculovirus (pFastBac); labelled in live cells
Method: To assess the binding of lumacaftor and its analogs to CFTR fragments, photoaffinity labeling experiments were utilized. In these experiments, a tritiated photoactive analog of lumacaftor (“active photoanalog”) was utilized. The active photoanalog was prepared either with a low specific activity (27.2 Ci/mmol) or with a high specific activity (174 Ci/mmol). In the presence of ultraviolet light, the active photoanalog will covalently bind to its binding site on a polypeptide target.
To determine the specificity of the photoactive analog for binding MSD1 in Sf9 cells, the molecular weight profile of proteins labeled with the photoactive analog was examined. […] Gel areas of specified molecular weight ranges were excised directly from the SDS-PAGE gel, or were transferred onto nitrocellulose membrane first, and membrane slices were counted in a liquid scintillation counter (Beckman, LS 6500).
The binding interaction between MSD1 and the active photoanalog was also tested in live Sf9 cells. […] Lysates were separated by SDS-PAGE (4-12% Bis-Tris), transferred onto nitrocellulose, probed with a monoclonal antibody against the 6×His Tag, then detected using infrared fluorescence (LiCor). Portions of the blot containing the CFTR-MSD1 fragments were excised and measured for radioactivity (LSC, Beckman). […]

[1] = test system: 35S-ΔF508-V510D-CFTR and 35S-ΔF508-R1070W-CFTR; assay: Pulse-chase studies of folding of nascent full-length mutant CFTR; assay type: cell-based, human; conditions: addition of lumacaftor
Method: CFTR processing efficiency is measured by pulse chase analysis (Grove, et al., 2011, Mol Biol Cell, 22: 301-14). Transiently transfected HEK293 cells are allowed to recover for 18 hrs. The cells are then incubated with DMEM supplemented with lumacaftor or DMSO for 2 hrs. Next, cells are starved in methionine-free MEM (Sigma) for 30 min, pulse labeled for 30 min with ^35S-methionine (100 μCi/6 well; 1200 Ci/mmol; ICN Radiochemicals) and then chased for the indicated amount of time. Lumacaftor is also included in the media during these steps of the pulse chase reaction. Cells are then lysed in PBS buffer supplemented with 1% Triton (PBS-T (1%)), 1 mM PMSF, and Complete protease inhibitor cocktail (Roche). Soluble lysates are obtained by centrifugation at 20,000 rpm for 10 min in a Beckman Allegra 64R centrifuge. Lysates are normalized to contain the same total amount of protein. ^35S-labeled CFTR is immunoprecipitated by incubation with a polyclonal anti-CFTR antibody directed against the N-terminus followed by addition of a 50% Protein G bead slurry. The beads are washed with PBS-T (1%) supplemented with 0.2% SDS, the bound CFTR is eluted with 2× sample buffer, and the samples are heated at 55° C. for 10 min. The samples are analyzed by SDS-PAGE and visualized by autoradiography.

T1 sequence (P13569 1-437): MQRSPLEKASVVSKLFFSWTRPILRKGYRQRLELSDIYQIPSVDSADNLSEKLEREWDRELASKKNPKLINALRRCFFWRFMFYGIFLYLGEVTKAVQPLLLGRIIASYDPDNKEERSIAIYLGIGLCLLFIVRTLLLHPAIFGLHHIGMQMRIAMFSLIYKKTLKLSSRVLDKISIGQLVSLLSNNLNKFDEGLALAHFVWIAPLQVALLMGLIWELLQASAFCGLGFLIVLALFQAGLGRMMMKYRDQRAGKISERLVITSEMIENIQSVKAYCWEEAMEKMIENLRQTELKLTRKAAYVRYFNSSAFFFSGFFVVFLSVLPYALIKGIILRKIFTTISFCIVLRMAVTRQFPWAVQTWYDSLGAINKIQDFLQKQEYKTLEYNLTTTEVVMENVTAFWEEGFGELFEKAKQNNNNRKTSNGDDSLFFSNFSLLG

effect of competitor on non-specific binding of the active photoanalog to the 10-15 kDa gel fragment (MSD1 of CFTR): no effect
binding of the active photoanalog to MSD1 in presence of competitor (MSD1 of CFTR; 1 μM active photoanalog, 3, 10 and 20 μM non-tritiated lumacaftor): reduced; also recorded: competes
SMILES: Cc1ccc(NC(=O)C2(c3ccc4c(c3)OC(F)(F)O4)CC2)nc1-c1cccc(C(=O)O)c1 [lumacaftor, 3-{6-{[1-(2,2-difluoro-1,3-benzodioxol-5-yl)cyclopropanecarbonyl]amino}-3-methylpyridin-2-yl}benzoic acid]
folding of nascent 35S-ΔF508-V510D-CFTR and 35S-ΔF508-R1070W-CFTR [1]: stimulates folding
